Measured values published in patent US20020055528A1, “Artemisinin analogs having antimalarial, antiproliferative, and antitumor activities and chemoselective methods of making the same” (priority 1999, published 2002).

How the values were obtained:
[1] = system: SF-268; assay: NCI 60 cell line screen (SRB), CNS Cancer; type: cell-based; conditions: for Log10TGI: PG=0; for Log10GI50: PG=+50
[2] = system: BT-549; assay: NCI 60 cell line screen (SRB), Breast Cancer; type: cell-based; conditions: for Log10TGI: PG=0
[3] = system: murine keratinocyte cell line PE; assay: Growth inhibition of PE cells, MTT assay; type: cell-based; conditions: 100 nanomolar; compared with calcitriol; FIG. 5
Method: To determine the inhibitory effect of the compositions of the present invention on cell proliferation, screening assays were performed on a murine keratinocyte cell line PE. Cell line PE was chosen for its particular sensitivity to the induction of omithine decarboxylase (ODC) activity by the extensively characterized tumor promoter TPA. Cell line PE was derived from a papilloma-induced in female SENCAR mice by a standard skin initiation/promotion protocol, see Yuspa, S. H., et al., Carcinogenesis, 7:949-958 (1986). PE cell culture medium consisted of Eagle's minimal essential medium without calcium chloride (Whittaker Bioproducts, Walkersville, Mass.) supplemented with 8% chelexed fetal calf serum and 1% antibiotic-antimycotic (Gibco BRL) and the addition of CaCI2 to 0.05 mM Ca^++
MTT [3-(4,5-dimethylthiazol-2-yl)-2,5-diphenyltetraxolium bromide] was purchased from Sigma Chemical Co. (St. Louis, Mo.), and TPA was supplied by L.C. Services (Woburn, Mass.). L-[^14C]omithine ([…]) was from Amersham/Searle Corp. (Arlington Heights, Ill.). Chemical solvents used in all assays of biological activity were of the highest grade commercially available.
Growth curves, shown in FIG. 5, for PE cells treated with calcitriol and the C-10 carbon-substituted dimers VII-f, VII-g and VII-h generated by assay for the reduction of the tetrazolium-based compound MTT, see Charmichael, et al., Cancer Res., 47:936-942 (1987). A mitochondrial dehydrogenase reduces MTT to a blue formazan product with an absorbance maximum of 505 nm in DMSO; the number of viable cells can thus be determined spectrophotometrically. PE cells were seeded at a density of 5,000 cells/well in 50 IL of medium into 96-well microtiter plates. Twelve hours later, the medium was removed, and cells were treated with 100 μL of fresh medium into which the appropriate amount of calcitriol or analog dissolved in dimethyl sulfoxide (DMSO) had been added, with the concentration of DMSO held constant at 0.1 %. […] At 24-hour intervals following the initial treatment of the cells with compounds, 0.1 mg (50 μL of a 2 mg/mL solution) of MTT was added to each well. After 4 hours, the MTT was removed and DMSO added to dissolve the blue formazan dye. Using a microtiter plate reader, the A505 was then determined and cell number calculated from blank-subtracted absorbance values.

[4] = system: SR; assay: NCI 60 cell line screen (SRB), Leukemia; type: cell-based; conditions: for Log10TGI: PG=0
[5] = system: NCI-H23; assay: NCI 60 cell line screen (SRB), Non-Small Cell Lung Cancer; type: cell-based; conditions: for Log10TGI: PG=0
[6] = system: OVCAR-3; assay: NCI 60 cell line screen (SRB), Ovarian Cancer; type: cell-based; conditions: PG=0
[7] = system: SNB-19; assay: NCI 60 cell line screen (SRB), CNS Cancer; type: cell-based; conditions: for Log10TGI: PG=0
[8] = system: TK-10; assay: NCI 60 cell line screen (SRB), Renal Cancer; type: cell-based; conditions: for Log10TGI: PG=0
[9] = system: SF-295; assay: NCI 60 cell line screen (SRB), CNS Cancer; type: cell-based; conditions: for Log10TGI: PG=0; for Log10GI50: PG=+50
[10] = system: COLO 205; assay: NCI 60 cell line screen (SRB), Colon Cancer; type: cell-based; conditions: for Log10TGI: PG=0
[11] = system: 60 cell line panel; conditions: 60 lines, nine subpanels; later anticancer studies; cited from earlier work
[12] = cited from earlier work
[13] = system: P. vivax and P. falciparum; conditions: 2099 cases of malaria, different dosage forms; cited from earlier work
[14] = system: P. berghei; conditions: P. berghei-infected mice; parasitemia 90 percent suppressed; cited from earlier work
[15] = system: SK-MEL-28; assay: NCI 60 cell line screen (SRB), Melanoma; type: cell-based
[16] = system: P. falciparum; conditions: two Hanian strains; compared with chloroquine; cited from earlier work
[17] = system: chloroquine-sensitive P. falciparum (NF54); assay: Antimalarial screening, [3H]hypoxanthine incorporation; type: cell-based, Plasmodium falciparum; conditions: Plasmodium falciparum, NF54, chloroquine-sensitive P. falciparum (NF54); read-out: IC50
Method: Activity was determined by measuring the incorporation of [^3H]hypoxanthine, by the methods of Desjardins and Milhouse, with the following modifications, see […].; Haynes, […]. Antimicrob. Agents Chemother., 16: 710 (1979); Milhous, W. K.; Weatherly, […].; Antimicrob. Agents Chemother., 27: 525 (1985). […] Calbiochem #391338), 27 mM NaHCO3 (Gibco BRL # 11810-025), and 10% heat-inactivated human type O+serum (Interstate Blood Bank, Inc.), under 3% O2, 4% CO2, and 93% N2-Parasitemia was maintained at 0.05-3% and doubling time at approximately 15 hours by twice weekly change of medium and replenishment with fresh erythrocytes. […] Sigma-Aldrich #27,043-1). DMSO solutions were diluted 500-fold in medium, serially diluted in 0.2% DMSO in medium (to maintain constant solvent concentration), then 100 μL aliquots were pipetted into microtiter plate wells (Costar3595). […] Cells were harvested (Brandel MB-48R) onto GF-C glass filters (Brandel). The filters were washed five times with 3 mL water per sample spot, dried under a heat lamp, and counted (Beckman Model LS-6500) in scintillation cocktail (ICN Cytoscint). Decays per minute (dpm) values were downloaded and analyzed (Power Macintosh 7200/90; Microsoft Excel 5.0), to yield the mean and standard deviation at each drug concentration.

[18] = system: P388 leukemia; conditions: NCI Report on NSC 369397; cited from earlier work

SMILES | Log10TGI [1] | Log10GI50 [1] | Log10TGI [2] | Log10GI50 ([2]; PG=+50) | Log10GI50 ([2]; Table IV (LC50, PG=−50)) | antiproliferative activity in words [3] | Log10GI50 ([4]; Table IV (LC50, PG=−50)) | Log10TGI [5] | log10 GI50 or LC50 (see conditions) ([5]; PG=+50) | log10 GI50 or LC50 (see conditions) ([5]; Table IV (LC50, PG=−50)) | Log10TGI [6] | Log10TGI [7] | Log10GI50 or Log10LC50 (see condition) ([7]; PG=+50) | Log10GI50 or Log10LC50 (see condition) ([7]; Table IV (LC50, PG=−50)) | Log10TGI [8] | Log10GI50 ([8]; PG=+50) | Log10GI50 ([8]; Table IV (LC50, PG=−50)) | Log10TGI [9] | Log10GI50 [9] | Log10GI50 ([10]; PG=+50) | other results
CC1=C(C=Cc2cccc(C=CC3=C(C)C4CCC(C)C5CCC6(C)OOC45C(O3)O6)c2)OC2OC3(C)CCC4C(C)CCC1C24OO3 (stereo not drawn) [VII-h] | >−4.00 log10M | −6.86 log10M | −7.10 log10M | <−8.00 log10M | >−4.00 log10M | at least as antiproliferative as calcitriol | >−4.00 log10M | >−4.00 log10M | −6.35 log10M | >−4.00 log10M | >−4.00 log10M | >−4.00 log10M | −7.09 log10M | >−4.00 log10M | >−4.00 log10M | −7.22 log10M | >−4.00 log10M | >−4.00 log10M | −6.39 log10M | −7.88 log10M | 
CC1=C(C=Cc2cccc(C=CC3=C(C)C4CCC(C)C5CCC6(C)OOC45C(O3)O6)c2)OC2OC3(C)CCC4C(C)CCC1C24OO3 (stereo not drawn) [VII-g] | >−4.00 log10M | −6.42 log10M |  | −7.51 log10M | >−4.00 log10M | at least as antiproliferative as calcitriol | >−4.00 log10M | −4.06 log10M | −5.92 log10M | >−4.00 log10M | >−4.00 log10M | >−4.00 log10M | −6.48 log10M | >−4.00 log10M | >−4.00 log10M | −6.48 log10M | >−4.00 log10M | >−4.00 log10M | −6.48 log10M | −7.50 log10M | Log10TGI [4]: −7.42 log10M; Log10GI50 ([4]; PG=+50): −7.42 log10M; Log10TGI [10]: −6.82 log10M; Log10GI50 ([10]; Table IV (LC50, PG=−50)): −4.96 log10M
C[C@@H]1CC[C@H]2[C@@H](C)C(=O)O[C@@H]3O[C@]4(C)CC[C@@H]1[C@]32OO4 [Artemisinin, artemisinin] |  |  | >−4.00 log10M |  | >−4.00 log10M |  | >−4.00 log10M | >−4.00 log10M |  |  |  | >−4.00 log10M |  |  | >−4.00 log10M | >−4.00 log10M | >−4.00 log10M |  |  | >−4.00 log10M | anticancer activity in words [11]: very little anticancer activity; solubility in water in words [12]: insolubility in water; clinical outcome [13]: clinical cure of all patients; Log10TGI [4]: >−4.00 log10M; Log10GI50 ([4]; PG=+50): >−4.00 log10M; SD90 [14]: 6.20 mg/kg; Log10TGI ([15]; PG=0): >−4.00 log10M; Log10GI50 ([15]; PG=+50): >−4.00 log10M; Log10GI50 ([15]; Table IV (LC50, PG=−50)): >−4.00 log10M; potency in words [16]: comparable to that of chloroquine; IC50 [17]: 10 nM; Log10TGI [10]: >−4.00 log10M; Log10GI50 ([10]; Table IV (LC50, PG=−50)): >−4.00 log10M; activity in words [18]: inactive
